Each structure is given as a SMILES string.

This experiment deals with H. pylori clinical isolate 1735 (HP-1735). Nature of the experiment: Antibacterial sensitivity / zone of growth inhibition by well/disc diffusion method. As to conditions: for zone of growth inhibition: clinical isolate 1735; for Antibiotic susceptibility (disc diffusion): strain HP-1735. The experiment is classed as cell-based, Helicobacter pylori.
Setting [1] is: antibiotic concentration 30 µg/disk.

In the case of `CN(C)[C@@H]1C(O)=C(C(N)=O)C(=O)[C@@]2(O)C(O)=C3C(=O)c4c(O)cccc4[C@@](C)(O)[C@H]3C[C@@H]12` [TET, Tetracycline], the “zone of growth inhibition” value under setting [1] is on record as 45 mm.
As to `CC[C@H]1OC(=O)[C@H](C)[C@@H](O[C@H]2C[C@@](C)(OC)[C@@H](O)[C@H](C)O2)[C@H](C)[C@@H](O[C@@H]2O[C@H](C)C[C@H](N(C)C)[C@H]2O)[C@](C)(OC)C[C@@H](C)C(=O)[C@H](C)[C@@H](O)[C@]1(C)O` [CLA, Clarithromycin], under “H. pylori clinical isolate 1735”, the “zone of growth inhibition compared with dietary antibacterial composition” value is “less zone of growth inhibition”. In addition, the “zone of growth inhibition” value (antibiotic concentration 15 µg/disk) was 8 mm. For the same compound, the “Antibiotic susceptibility (disc diffusion)” value (clarithromycin and tetracycline criterion) is “resistant (≦30 mm for clarithromycin and tetracycline)”.
On to `CC1(C)S[C@@H]2[C@H](NC(=O)[C@H](N)c3ccc(O)cc3)C(=O)N2[C@H]1C(=O)O` [AMO, Amoxicillin], for which the “zone of growth inhibition” value under setting [1] came to 50 mm. Besides, under “amoxicillin criterion”, the “Antibiotic susceptibility (disc diffusion)” value was “sensitive”.

The values above are taken from patent US20090175842A1, “DIETARY ANTI-BACTERIAL COMPOSITIONS” (priority 2006, published 2009).
